Experimental data taken from PubChem BioAssay (NCI).
Several values for one entry are separate records, joined by “and”; a condition that tells them apart may be missing. Equal values may be shown once.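 Where inhibition never reached the appropriate level, the endpoint shown equals the highest concentration tested. Otherwise, values were interpolated linearly from a five-concentration, 48-hour dose response in 96-well plates. The concentration for 50% growth inhibition is given as GI50. The concentration for full growth arrest is given as TGI.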

What was measured:
Assay in all cases: NCI-60 cell line screen, 48 h
[1] = test system: CAKI-1 renal
[2] = test system: DU-145 prostate
[3] = test system: HCT-116 colon
[4] = test system: HOP-62 NSCLC
[5] = test system: MCF7 breast
[6] = test system: NCI-H23 lung
[7] = test system: NCI-H460 lung
[8] = test system: SF-295 CNS
[9] = test system: T-47D breast
[10] = test system: U251 CNS

Row | SMILES | TGI [1] | TGI [2] | TGI [3] | TGI [4] | TGI [5] | TGI [6] | TGI [7] | TGI [8] | TGI [9] | TGI [10] | GI50 [1] | GI50 [2] | GI50 [3] | GI50 [4] | GI50 [5] | GI50 [6] | GI50 [7] | GI50 [8] | GI50 [9] | GI50 [10]
1 | COc1ccc(OC)c(-c2cc(=O)c3c(OC)c(OC)c(OC)c(OC)c3o2)c1 | > 100 µM | > 100 µM | > 100 µM | 79.5 µM | 55.5 µM | > 100 µM | > 100 µM | 48.4 µM | 21.3 µM | > 100 µM | – | – | – | – | – | – | – | – | – | –
2 | CCc1cc2c(cc1N1CCC(N3CCOCC3)CC1)C(C)(C)c1[nH]c3cc(C#N)ccc3c1C2=O | 12.4 µM and 4.57 µM and 3.87 µM | 5.96 µM and 3.52 µM and 7.19 µM | 3.85 µM and 3.6 µM and > 10 µM | 2.61 µM and 3.03 µM and 3.42 µM | > 23.8 µM and 15.6 µM and > 10 µM | 38.6 µM and 20 µM and > 10 µM | 4.03 µM and 4.17 µM and 7.64 µM | 9.06 µM and 13.2 µM and 3.68 µM | 10.9 µM and 5.32 µM and > 10 µM | 2.76 µM and 3.28 µM and 2.96 µM | 1.26 µM and 1.28 µM and 1.13 µM | 1.67 µM and 1.46 µM and 1.95 µM | 1.76 µM and 1.79 µM and 3.1 µM | 0.849 µM and 1.4 µM and 1.43 µM | 1.66 µM and 1.64 µM and 1.34 µM | 2.8 µM and 3.45 µM and 5.94 µM | 1.47 µM and 1.74 µM and 1.68 µM | 2.56 µM and 2.95 µM and 1.61 µM | 2.2 µM and 1.94 µM and 2.18 µM | 1.33 µM and 1.43 µM and 1.4 µM
3 | COc1cccc2c1c(C1=C(c3cn(C)c4ccccc34)C(=O)NC1=O)cn2C | > 25 µM | > 25 µM | > 25 µM | > 25 µM | > 25 µM | > 25 µM | > 25 µM | > 25 µM | > 25 µM | > 25 µM | > 25 µM | > 25 µM | > 25 µM | > 25 µM | > 25 µM | > 25 µM | > 25 µM | > 25 µM | > 25 µM | > 25 µM
4 | COc1ccc(-c2c(-c3cc(OC)c(OC)c(OC)c3)noc2N)cc1 | > 100 µM | 1.32 µM | > 32 µM | 38.9 µM | 19.1 µM | 30 µM | > 33.8 µM | > 100 µM | > 100 µM | 12.6 µM | < 0.01 µM | 0.0187 µM | < 0.01 µM | 0.0239 µM | < 0.01 µM | 0.0198 µM | < 0.015 µM | < 0.01 µM | 9.91 µM | < 0.0165 µM
5 | O=C(Nc1nc2ccc(F)cc2s1)c1cccnc1Nc1ccc(Cl)cc1 | > 30.8 µM | > 100 µM | > 29.2 µM | 9.08 µM | > 100 µM | 8.38 µM | > 100 µM | 7.83 µM | > 29.2 µM | > 100 µM | 2.56 µM | 3.76 µM | 1.99 µM | 2.55 µM | 2.32 µM | 1.67 µM | 2.22 µM | 1.98 µM | 1.04 µM | 2.88 µM
6 | COC(=O)[C@H](Cc1ccc(O)cc1)NC(=O)[C@@H](OC)[C@@H]1Cc2cc3cc(OC4CC(OC5CC(O)C(O)C(C)O5)C(O)C(C)O4)c(C)c(O)c3c(O)c2C(=O)[C@H]1OC1CC(OC2CC(OC3CC(C)(O)C(O)C(C)O3)C(O)C(C)O2)C(O)C(C)O1 (stereo not given in full) | > 25 µM | > 25 µM | > 25 µM | > 25 µM | > 25 µM | > 25 µM | > 25 µM | > 25 µM | > 25 µM | > 25 µM | 0.45 µM | 0.164 µM | 0.0175 µM | 0.106 µM | 0.0119 µM | 0.104 µM | 0.0604 µM | 0.132 µM | 0.0873 µM | 0.113 µM
7 | CN(C)CCCNC(=O)c1cncnc1Nc1ccc(OCc2cccc(F)c2)c(Cl)c1 | 3.05 µM | 3.2 µM | 2.79 µM | 3.48 µM | 3.06 µM | 3.28 µM | 3.13 µM | 3.1 µM | 4.28 µM | 3.26 µM | 1.66 µM | 1.76 µM | 1.47 µM | 1.75 µM | 1.56 µM | 1.74 µM | 1.71 µM | 1.7 µM | 1.82 µM | 1.66 µM
